In patent publication US20240225973A1, “COSMETIC COMPOSITION FOR IMPROVING SENSITIVE SKIN” (LG HOUSEHOLD & HEALTH CARE LTD., priority 2023, published 2024):

Tested on: beta-defensin 2 (human β-defensin 2, hBD-2)
Assay: beta-defensin 2 synthesis ELISA in cortisol-treated HaCaT cells
Format: cell-based
Parameters: change of beta-defensin 2 in skin cells: dose or concentration left out as unconfirmed
Conditions: for enhancement efficacy (beta-defensin 2 synthesis): single treatment at 1 ppm
Experimental: First, HaCaT, which is a human epidermal cell of the outermost layer among skin cells, was cultured using Dulbecco's Modified Eagle's Media (DMEM; Gibco, USA) mixed with 10% fetal bovine serum (FBS; Gibco, USA) and 1% antibiotic antimycotic (Gibco, USA) in a 24-well plate under conditions of 37° C. and 5% CO2. […] […] After 24 hours, the cells were treated with curcumin, taurine, and acetyl hexapeptide-8 at experimental concentrations, and cultured for 24 hours. At this time, curcumin, taurine, and acetyl hexapeptide-8 were treated alone, and the concentration of curcumin was fixed at 0.1 ppm and 1 ppm, and then taurine and acetyl hexapeptide-8 were treated in combination of concentrations, and cultured for 24 hours. 24 hours after treatment with each sample, ELISA was performed to quantify the amount of beta-defensin 2 (human β-defensin 2, hBD-2) protein synthesis. ELISA was performed using the HUMAN BETA DEFENSIN 2 ELISA kit (ALPHA DIAGNOSTIC, USA) and using the cell culture medium according to the kit's manual, and the final protein amount was calculated by measuring absorbance at 400 nm. […] At this time, when the amount thereof increased compared to the decrease due to cortisol, it was interpreted that the synthesis of beta-defensin 2 was increased by the sample. In addition, the synergistic effect between respective active substances that enhance beta-defensin 2 which had been reduced by cortisol was predicted through the Colby formula, and when the actual measured value was greater than the predicted value, it was determined that there was the synergistic effect.

[1] = Table 4: each substance at 1 ppm, alone or three cotreated, Cortisol (5 μM) = 100
[2] = single treatment 0.01 ppm, 24 h, HaCaT, cortisol group = 100
[3] = single treatment 0.1 ppm, 24 h, HaCaT, cortisol group = 100
[4] = single treatment 1 ppm, 24 h, HaCaT, cortisol group = 100

Row | SMILES | Production amount of beta-defensin 2 (%) [1] | Production amount of beta-defensin 2 (%) [2] | Production amount of beta-defensin 2 (%) [3] | Production amount of beta-defensin 2 (%) [4] | enhancement efficacy (beta-defensin 2 synthesis) | Production amount of beta-defensin 2 (%) (single treatment 5 ppm, 24 h, HaCaT, cortisol group = 100) | Production amount of beta-defensin 2 (%) (single treatment 10 ppm, 24 h, HaCaT, cortisol group = 100) | change of beta-defensin 2 in skin cells (HaCaT, cultured for 24 hours)
1 | COc1cc(/C=C/C(=O)CC(=O)/C=C/c2ccc(O)c(OC)c2)ccc1O [Curcumin, curcumin] | 106.82% | 96.65% | 97.92% | 106.82% | confirmed | – | – | –
2 | NCCS(=O)(=O)O [Taurine, 2-aminoethanesulfonic acid] | 117.6% | 100.60% | 99.90% | 117.60% | confirmed | 87.61% | 83.06% | –
3 | C[C@]12CCC(=O)C=C1CC[C@@H]1[C@@H]2[C@@H](O)C[C@@]2(C)[C@H]1CC[C@]2(O)C(=O)CO [cortisol, hydrocortisone, reference compound] | – | – | – | – | – | – | – | significantly reduced
